pIC50: −log10 of the molar value. Where two headings read alike, the source gives them in different places.
Molecular target: T1, hT2R54 (Homo sapiens, UniProt P59534)
T1 construct: expressed in transfected cells; it overexpresses a promiscuous G protein
T1 sequence (P59534 1-338): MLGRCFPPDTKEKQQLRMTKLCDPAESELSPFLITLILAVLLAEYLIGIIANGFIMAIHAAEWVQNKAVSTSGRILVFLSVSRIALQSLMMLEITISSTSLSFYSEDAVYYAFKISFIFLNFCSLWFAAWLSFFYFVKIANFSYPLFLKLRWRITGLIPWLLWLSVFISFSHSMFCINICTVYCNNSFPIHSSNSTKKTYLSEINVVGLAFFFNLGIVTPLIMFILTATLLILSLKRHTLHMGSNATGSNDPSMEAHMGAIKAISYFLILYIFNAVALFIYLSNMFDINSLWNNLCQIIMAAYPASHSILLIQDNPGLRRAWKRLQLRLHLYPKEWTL
Assay: Cell-based assay for measuring hT2R54 inhibition (FLIPR calcium, Fluo4AM, acetaminophen as bitter agonist)
Settings: cells stably expressing hT2R54 and a promiscuous G protein, read-out: hT2R54 IC50
Experimental: Cells stably expressing hT2R54 and a promiscuous G protein were seeded in 384 well plates 24 hours prior to the experiment. Cells were loaded with the calcium indicator Fluo4AM, washed and loaded in a FLIPR instrument with a compound plate containing increasing doses of acetaminophen in quadruplicates and prepared at 2× of final concentration. Baseline was recorded for 10 seconds, then 25 μl of […] was added onto 25 μl of cells and resulting changes in fluorescence were monitored over an additional 3 minutes. The host cell line overexpressing the G protein but not hT2R54 was treated as described above.
The ability of a test compound that blocks bitter taste elicited through hT2R54 was measured in this assay, as follows. Cells stably expressing hT2R54 and a promiscuous G protein were seeded in 384 well plates 24 hours prior to the experiment. Cells were loaded with the calcium indicator Fluo4AM, washed and loaded in a FLIPR instrument with a compound plate containing increasing doses of acetaminophen in buffer and increasing doses of acetaminophen with depicted fixed concentrations of Cmpd 109 (Table 4). Base line was recorded for 10 seconds, then 25 μl of compound and compound mixtures were added onto 25 μl of cells and resulting changes in fluorescence were monitored over an additional 3 minutes. The concentration of test compound that blocks half of the response when the bitter compound alone is present is presented as the EC50 or IC50 value.
In the examples above, the EC50 of compounds for blocking bitter taste elicited through T2R54 was measured in the same manner.

| pIC50 (Table 4) | SMILES | also measured |
| --- | --- | --- |
| 6.73 | CCOC(=O)C1CCCN(CC(=O)Nc2cc3c(cc2OC)OCO3)C1 (stereo not shown) [compound 117, Ethyl 1-(2-((6-Methoxybenzo[d][1,3]dioxol-5-yl)amino)-2-oxoethyl)piperidine-3-carboxylate] | – |
| 7.62 | CCOC(=O)C1CCCN(CC(=O)Nc2cc3c(cc2C(C)=O)OCCO3)C1 (stereo not shown) [compound 118, Ethyl 1-(2-((7-Acetyl-2,3-dihydrobenzo[b][1,4]dioxin-6-yl)amino)-2-oxoethyl)piperidine-3-carboxylate] | – |
| 6.61 | CC(=O)c1cc2c(cc1NC(=O)CN1CC(C)OC(C)C1)OCO2 (stereo not shown) [compound 119] | – |
| 7.19 | COC1CCN(CC(=O)Nc2cc3c(cc2C(C)=O)OCO3)CC1 [compound 121] | – |
| 8.70 | COC1CCCN(CC(=O)Nc2cc3c(cc2C(C)=O)OCO3)C1 (stereo not shown) [compound 123] | – |
| 6.81 | COC(=O)C1CN(CC(=O)Nc2cc3c(cc2C(C)=O)OCO3)CCC1=O (stereo not shown) [compound 126] | – |
| 7.89 | CCOC(=O)C1CN(CC(=O)Nc2cc3c(cc2C(C)=O)OCO3)CCO1 (stereo not shown) [compound 127] | – |
| 7.10 | CCOC(=O)C1COCCN1CC(=O)Nc1cc2c(cc1C(C)=O)OCO2 (stereo not shown) [compound 128] | – |
| 5.70 | CCN(CCOC)CC(=O)Nc1cc2c(cc1C(C)=O)OCO2 [compound 131] | – |
| 6.18 | COC(=O)CN(C)CC(=O)Nc1cc2c(cc1C(C)=O)OCO2 [compound 132] | – |
| 6.02 | CC(=O)c1cc2c(cc1NC(=O)CN(C)CCC(=O)N(C)C)OCO2 [compound 134] | – |
| 6.30 | CCNC(=O)CCN(C)CC(=O)Nc1cc2c(cc1C(C)=O)OCO2 [compound 135] | – |
| 6.77 | CCOC(=O)C1CCC(N(C)CC(=O)Nc2cc3c(cc2C(C)=O)OCO3)CC1 (stereo not shown) [compound 141] | – |
| 6.85 | COc1cc2c(cc1NC(=O)CN1CCOCC1)OCO2 [compound 143] | – |
| > 5.70 | COc1cc2c(cc1NC(=O)CN1CCC(O)CC1)OCO2 [compound 146] | – |
| 6.35 | COc1cc2c(cc1NC(=O)CN1CCC(OC)CC1)OCO2 [compound 147] | – |
| > 5.70 | COc1cc2c(cc1NC(=O)CN1CCN(C(=O)OC(C)(C)C)CC1)OCO2 [compound 148] | – |
| 6.41 | COc1cc2c(cc1NC(=O)CN1CCc3ccccc31)OCO2 [compound 150] | – |
| 6.82 | CCOC(=O)C1CCCN(CC(=O)Nc2cc3c(cc2Cl)OCCO3)C1 (stereo not shown) [compound 151] | – |
| 7.62 | CCOC(=O)C1CCN(CC(=O)Nc2cc3c(cc2C(C)=O)OCCO3)CC1 [compound 153] | – |

Further lines, the compound ahead of its results:

| SMILES | pIC50 (Table 4) | also measured |
| --- | --- | --- |
| CC(=O)c1cc2c(cc1NC(=O)CN1CCC(O)CC1)OCO2 [compound 120] | > 8.00 | – |
| CC(=O)c1cc2c(cc1NC(=O)CN1CCCC(O)C1)OCO2 (stereo not shown) [compound 122] | > 7.70 | – |
| COC1CCN(C(C)(C)C(=O)Nc2cc3c(cc2C(C)=O)OCO3)CC1 [compound 124] | 5.67 | – |
| COC(=O)C1CCN(CC(=O)Nc2cc3c(cc2C(C)=O)OCO3)CC1 [compound 125] | 7.00 | – |
| CC(=O)c1cc2c(cc1NC(=O)CN1CCN(C(=O)OC(C)(C)C)CC1)OCO2 [compound 129] | > 6.00 | – |
| CC(=O)c1cc2c(cc1NC(=O)CN(C)C1CCCCC1)OCO2 [compound 130] | 6.51 | – |
| CCOC(=O)CCN(C)CC(=O)Nc1cc2c(cc1C(C)=O)OCO2 [compound 133] | 6.95 | – |
| CCOC(=O)CCN(CC)CC(=O)Nc1cc2c(cc1C(C)=O)OCO2 [compound 136] | 6.75 | – |
| CCOC(=O)[C@@H]1CCCC[C@H]1N(C)CC(=O)Nc1cc2c(cc1C(C)=O)OCO2 [compound 137] | 5.55 | – |
| CC(=O)c1cc2c(cc1NC(=O)CN(C)C1CCCN(C(=O)OC(C)(C)C)C1)OCO2 (stereo not shown) [compound 138] | 6.82 | – |
| CC(=O)c1cc2c(cc1NC(=O)CNC1CCN(C(=O)OC(C)(C)C)CC1)OCO2 [compound 139] | 6.75 | – |
| CC(=O)c1cc2c(cc1NC(=O)CN(C)C1CCN(C(=O)OC(C)(C)C)CC1)OCO2 [compound 140] | 6.36 | – |
| CCOC(=O)CCN(C)CC(=O)Nc1cc2c(cc1OC)OCO2 [compound 142] | 6.64 | – |
| COc1cc2c(cc1NC(=O)CN1CCCC(O)C1)OCO2 (stereo not shown) [compound 144] | > 5.70 | – |
| COc1cc2c(cc1NC(=O)CN1CCCC(OC)C1)OCO2 (stereo not shown) [compound 145] | 6.24 | – |
| COc1cc2c(cc1NC(=O)CN1CCCc3cccc(F)c31)OCO2 [compound 149] | 6.05 | – |
| CC(=O)c1cc2c(cc1NC(=O)CN1CCOCC1)OCCO2 [compound 152] | 6.20 | – |
| CNC(=O)C1CCCN(CC(=O)Nc2cc3c(cc2C(C)=O)OCO3)C1 (stereo not shown) [compound 154, 1-(2-((6-Acetylbenzo[d][1,3]dioxol-5-yl)amino)-2-oxoethyl)-N-methylpiperidine-3-carboxamide] | – | pIC50 (Table 5): 7.62 |
| CCNC(=O)C1CCCN(CC(=O)Nc2cc3c(cc2C(C)=O)OCO3)C1 (stereo not shown) [compound 155] | – | pIC50 (Table 5): 6.68 |
| CC(=O)c1cc2c(cc1NC(=O)CN1CCCC(C(=O)NCc3ccccc3)C1)OCO2 (stereo not shown) [compound 156] | – | pIC50 (Table 5): 6.94 |
| CC(=O)c1cc2c(cc1NC(=O)CN1CCCC(C(=O)Nc3ccccc3)C1)OCO2 (stereo not shown) [compound 157] | – | pIC50 (Table 5): 6.25 |
| CC(=O)c1cc2c(cc1NC(=O)CN1CCCC(C(=O)N(C)C)C1)OCO2 (stereo not shown) [compound 158] | – | pIC50 (Table 5): 6.97 |
| CC(=O)c1cc2c(cc1NC(=O)CN1CCCC(C(=O)N3CCOCC3)C1)OCO2 (stereo not shown) [compound 159] | – | pIC50 (Table 5): 6.30 |
| CNC(=O)C1CCCCN1CC(=O)Nc1cc2c(cc1C(C)=O)OCO2 (stereo not shown) [compound 160] | – | pIC50 (Table 5): 5.90 |

| SMILES | pIC50 (Table 4) | also measured |
| --- | --- | --- |
| CNC(=O)C1CCN(CC(=O)Nc2cc3c(cc2C(C)=O)OCO3)CC1 [compound 161] | – | pIC50 (Table 5): 5.87 |
| CCNC(=O)C1CCN(CC(=O)Nc2cc3c(cc2C(C)=O)OCO3)CC1 [compound 162] | – | pIC50 (Table 5): 6.13 |
| CC(=O)c1cc2c(cc1NC(=O)CN1CCC(C(=O)Nc3cccnc3)CC1)OCO2 [compound 163] | – | pIC50 (Table 5): 6.34 |
| CC(=O)c1cc2c(cc1NC(=O)CN1CCC(C(=O)Nc3ccccc3)CC1)OCO2 [compound 164] | – | pIC50 (Table 5): 5.68 |
| CC(=O)c1cc2c(cc1NC(=O)CN1CCC(C(=O)NCc3ccccc3)CC1)OCO2 [compound 165] | – | pIC50 (Table 5): 5.85 |
| CC(=O)NC1CCN(CC(=O)Nc2cc3c(cc2C(C)=O)OCO3)CC1 [compound 166, 2-(4-Acetamidopiperidin-1-yl)-N-(6-acetylbenzo[d][1,3]dioxol-5-yl)acetamide] | – | pIC50 (Table 6): 6.58 |
| CCC(=O)NC1CCN(CC(=O)Nc2cc3c(cc2C(C)=O)OCO3)CC1 [compound 167] | – | pIC50 (Table 6): 6.51 |
| CC(=O)c1cc2c(cc1NC(=O)CN1CCC(NC(=O)C(C)C)CC1)OCO2 [compound 168] | – | pIC50 (Table 6): 6.85 |
| CC(=O)c1cc2c(cc1NC(=O)CN1CCC(NC(=O)CC(C)C)CC1)OCO2 [compound 169] | – | pIC50 (Table 6): 6.85 |
| CC(=O)c1cc2c(cc1NC(=O)CN1CCC(CNC(=O)CC(C)C)CC1)OCO2 [compound 170] | – | pIC50 (Table 6): 6.73 |
| CC(=O)c1cc2c(cc1NC(=O)CN1CCC(NC(=O)c3ccccc3)CC1)OCO2 [compound 171] | – | pIC50 (Table 6): 7.22 |
| CC(=O)c1cc2c(cc1NC(=O)CN1CCC(NC(=O)c3ccco3)CC1)OCO2 [compound 172] | – | pIC50 (Table 6): 6.16 |
| CC(=O)c1cc2c(cc1NC(=O)CN1CCC(NC(=O)c3cccs3)CC1)OCO2 [compound 173] | – | pIC50 (Table 6): 6.96 |
| CC(=O)c1cc2c(cc1NC(=O)CN1CCC(NC(=O)c3ccccn3)CC1)OCO2 [compound 174] | – | pIC50 (Table 6): 6.57 |
| CC(=O)c1cc2c(cc1NC(=O)CN1CCC(NC(=O)c3cccnc3)CC1)OCO2 [compound 175] | – | pIC50 (Table 6): 6.96 |
| CC(=O)c1cc2c(cc1NC(=O)CN1CCC(NC(=O)c3ccncc3)CC1)OCO2 [compound 176] | – | pIC50 (Table 6): 6.35 |
| CC(=O)c1cc2c(cc1NC(=O)CNC1CCN(C(=O)CC(C)C)CC1)OCO2 [compound 177] | – | pIC50 (Table 6): 6.70 |
| CC(=O)c1cc2c(cc1NC(=O)CNC1CCN(C(=O)c3ccco3)CC1)OCO2 [compound 178] | – | pIC50 (Table 6): 7.22 |
| CC(=O)c1cc2c(cc1NC(=O)CNC1CCN(C(=O)c3cccnc3)CC1)OCO2 [compound 179] | – | pIC50 (Table 6): 7.05 |
| CC(=O)c1cc2c(cc1NC(=O)CN1CCC(N(C)C(=O)CC(C)C)CC1)OCO2 [compound 180] | – | pIC50 (Table 6): 6.23 |
| CC(=O)c1cc2c(cc1NC(=O)CN1CCC(N(C)C(=O)c3ccco3)CC1)OCO2 [compound 181] | – | pIC50 (Table 6): 6.17 |
| CC(=O)c1cc2c(cc1NC(=O)CN1CCC(N(C)C(=O)c3cccnc3)CC1)OCO2 [compound 182] | – | pIC50 (Table 6): 6.34 |
| CC(=O)c1cc2c(cc1NC(=O)CN(C)C1CCN(C(=O)c3ccco3)CC1)OCO2 [compound 183, N-(6-Acetylbenzo[d][1,3]dioxol-5-yl)-2-((1-(furan-2-carbonyl)piperidin-4-yl)(methyl)amino)acetamide] | – | pIC50 (Table 7): 7.21 |

Source: patent publication US12295396B2, “Antagonists of T2R54 and compositions and uses thereof” (Firmenich Incorporated, priority 2018, dated 2025)
